These results are taken from ChEMBL document CHEMBL1201862, “PubChem BioAssay data set” (2004).

The structures appear in SMILES notation.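 96-well plates; 48 h exposure; 5 concentrations. Endpoints by linear interpolation between flanking doses. Not reached: highest tested concentration assigned. The concentration for 50% growth inhibition is given as GI50.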 The source made the active and inactive calls. Rule as the data show it: active = GI50 up to about 1.1 µM and inactive = higher.

Test systems include CAKI-1; OVCAR-5; HCC 2998; HL-60; K562; MOLT-4; RPMI-8226; UACC-62; SW-620; SF-268; UACC-257; HOP-92; KM12; NCI-H23; SNB-19; HCT-15; NCI-H460; HCT-116; SN12C.
Common to all, as to test: NCI anticancer screen, dose series, 48 h

Consider `CC(C)c1c(O)c(O)c2c(c1O)C(=O)C(O)=C1C(C)(C)CCC[C@@]12C`, for which the GI50 is 2.61 µM (inactive) in the assay on CAKI-1; 5.18 µM (inactive) with OVCAR-5; 3.37 µM (inactive) in the assay on HCC 2998; 2.05 µM (inactive) in the assay on HL-60; 2.77 µM (inactive) in the assay with K562; 2.96 µM (inactive) in the assay on MOLT-4. The GI50 in the assay on RPMI-8226 is 1.26 µM (inactive); in the assay on UACC-62, 3.86 µM (inactive); in the assay on SW-620, 3.29 µM (inactive); in the assay with SF-268, 4.76 µM (inactive); in the assay on UACC-257 it was 2.67 µM (inactive); with HOP-92, 1.89 µM (inactive). For the same compound, the GI50 with KM12 is 3.44 µM (inactive); in the assay with NCI-H23 it was 2.92 µM (inactive); with SNB-19, 4.76 µM (inactive); with HCT-15 it was 3.66 µM; with NCI-H460, 3.19 µM (inactive); with HCT-116, 3.4 µM (inactive). The GI50 in the assay on SN12C was 3.23 µM (inactive).

Consider `O=C(O)CCNS(=O)(=O)c1ccc(NC(=O)c2ccccc2)cc1`, for which the GI50 with CAKI-1, in the assay on OVCAR-5, in the assay on HCC 2998, with HL-60, with K562 and in the assay with MOLT-4 was > 100 µM (inactive) in each case. In addition, the GI50 with RPMI-8226, in the assay with UACC-62, in the assay with SW-620, in the assay on SF-268, in the assay on UACC-257 and in the assay with HOP-92 was > 100 µM (inactive) in each case. Moreover, the GI50 in the assay on KM12 is > 100 µM (inactive); in the assay on NCI-H23, > 100 µM (inactive); in the assay with SNB-19, > 100 µM (inactive); in the assay with HCT-15, greater than 100 µM; with NCI-H460 it was > 100 µM (inactive); in the assay with SN12C, > 100 µM (inactive).

Consider `Cc1ccc(C)c(NC(=O)CC/C(=N\NC(=O)c2c(O)ccc3ccccc23)C(C)C(=O)c2ccc(O)cc2)c1` (stereo unspecified), for which the GI50 was 65.2 µM (inactive) in the assay on CAKI-1; 37.5 µM (inactive) in the assay with OVCAR-5; 44.6 µM (inactive) in the assay on HCC 2998; 5.26 µM (inactive) with HL-60; 32.8 µM (inactive) with K562; 27.2 µM (inactive) in the assay on MOLT-4. Moreover, the GI50 was 94.4 µM (inactive) in the assay with RPMI-8226; 17.3 µM (inactive) in the assay on UACC-62; 41.3 µM (inactive) in the assay with SW-620; 17.9 µM (inactive) with SF-268; 31.9 µM (inactive) in the assay with UACC-257; 46.3 µM (inactive) in the assay on HOP-92. Moreover, the GI50 is 51.2 µM (inactive) in the assay with KM12; 31.1 µM (inactive) in the assay with NCI-H23; 11.6 µM (inactive) with SNB-19; 26.5 µM in the assay on HCT-15; 21.7 µM (inactive) in the assay on NCI-H460; 57.4 µM (inactive) with HCT-116. The GI50 in the assay on SN12C is 38.6 µM (inactive).

As to `O=C(/C=C/c1c(O)ccc2ccccc12)c1ccccc1Cl`, the GI50 in the assay on CAKI-1 was 81.5 µM (inactive); in the assay on OVCAR-5 it was > 100 µM (inactive); with HCC 2998 it was > 100 µM (inactive); with HL-60 it was 11.1 µM (inactive); with K562, 20.2 µM (inactive); in the assay on MOLT-4, 33.4 µM (inactive). In addition, the GI50 with RPMI-8226 is 27.7 µM (inactive); with UACC-62, 15.8 µM (inactive); with SW-620 it was 24.2 µM (inactive); with SF-268, 29.3 µM (inactive); with UACC-257 it was 19.7 µM (inactive); in the assay on HOP-92, 23.2 µM (inactive). The GI50 with KM12 was 38.5 µM (inactive); with NCI-H23 it was 19.8 µM (inactive); in the assay on SNB-19, 49.8 µM (inactive); in the assay with HCT-15, 36.4 µM; with NCI-H460 it was 30.6 µM (inactive); in the assay with HCT-116 it was 21.2 µM (inactive). Further, in the assay with SN12C, the GI50 was 26.7 µM (inactive).

Consider `Clc1cccc(Cl)c1C1SCc2nc3ccccc3n21` (stereo unspecified), for which the GI50 is > 100 µM (inactive) in the assay on CAKI-1; > 100 µM (inactive) in the assay on OVCAR-5; > 100 µM (inactive) with HCC 2998; 3.97 µM (inactive) with HL-60; 10.7 µM (inactive) in the assay with K562; 19.1 µM (inactive) with MOLT-4. Moreover, the GI50 is 9.2 µM (inactive) in the assay with RPMI-8226; 50.1 µM (inactive) in the assay on UACC-62; 46.7 µM (inactive) in the assay on SW-620; > 100 µM (inactive) in the assay on SF-268; 21.1 µM (inactive) in the assay with UACC-257; 9.48 µM (inactive) with HOP-92. Moreover, the GI50 in the assay on KM12 is > 100 µM (inactive); with NCI-H23 it was > 100 µM (inactive); in the assay with SNB-19, > 100 µM (inactive); in the assay with HCT-15, 24.9 µM; in the assay with NCI-H460, 48.6 µM (inactive); in the assay on HCT-116, 9.23 µM (inactive). For the same compound, in the assay on SN12C, the GI50 is > 100 µM (inactive).

With `CCOC(=O)C(CCC(N)=O)(CCC(=O)OC)C(=O)OCC`, the GI50 with CAKI-1, in the assay with OVCAR-5, with HCC 2998, with HL-60, with K562 and in the assay on MOLT-4 was > 100 µM (inactive) each time. In addition, the GI50 in the assay with RPMI-8226, with UACC-62, with SW-620, in the assay on SF-268, in the assay on UACC-257 and in the assay on HOP-92 was > 100 µM (inactive) each time. The GI50 with KM12, in the assay on NCI-H23, in the assay with SNB-19, in the assay on NCI-H460, in the assay on HCT-116 and with SN12C was > 100 µM (inactive) each time.

Regarding `COc1cccc(C(=O)N2CCc3ccccc32)c1OC`, the GI50 in the assay with CAKI-1 was 38.5 µM (inactive); in the assay on OVCAR-5, > 100 µM (inactive); with HCC 2998, 85.1 µM (inactive); in the assay on HL-60, 27.8 µM (inactive); in the assay on K562, 34.7 µM (inactive); in the assay with MOLT-4, 23 µM (inactive). Moreover, the GI50 is 35.3 µM (inactive) with RPMI-8226; 47 µM (inactive) in the assay with UACC-62; 41.9 µM (inactive) in the assay on SW-620; 53.1 µM (inactive) in the assay on UACC-257; 53.5 µM (inactive) with HOP-92; 34.7 µM (inactive) in the assay on KM12. The GI50 with NCI-H23 is 34.4 µM (inactive); with SNB-19, 74.8 µM (inactive); in the assay with HCT-15, 21 µM; in the assay with NCI-H460, 81.8 µM (inactive); in the assay on HCT-116, 56.5 µM (inactive); in the assay with SN12C, > 100 µM (inactive).

Take `CCOC(=O)NC(=O)c1cn(CCN2CCN(C(=O)CNC(=O)CNC(=O)Cn3cc(C(=O)NC(=O)OCC)c(=O)[nH]c3=O)CC2)c(=O)[nH]c1=O`: the GI50 in the assay with CAKI-1, with OVCAR-5, with HCC 2998, in the assay on HL-60, with K562 and in the assay with MOLT-4 was > 100 µM (inactive) throughout. Further, the GI50 in the assay on UACC-62, in the assay with SW-620, in the assay on SF-268, in the assay on UACC-257, in the assay with HOP-92 and in the assay with KM12 was > 100 µM (inactive) each time. The GI50 in the assay on NCI-H23 was > 100 µM (inactive); with SNB-19, > 100 µM (inactive); in the assay with HCT-15, greater than 100 µM; with NCI-H460, > 100 µM (inactive); in the assay with HCT-116, > 100 µM (inactive); in the assay with SN12C, > 100 µM (inactive).

Take `Brc1cc(C2OCCCO2)ccc1OCc1ccccc1`: the GI50 in the assay on CAKI-1 is 54 µM (inactive); in the assay on OVCAR-5 it was 29.6 µM (inactive); in the assay on HCC 2998 it was 30.3 µM (inactive); in the assay with HL-60, 25.2 µM (inactive); with K562, 34.5 µM (inactive); with MOLT-4, 24.9 µM (inactive). Besides, the GI50 is 25.9 µM (inactive) in the assay with RPMI-8226; 47.9 µM (inactive) in the assay on UACC-62; 30.1 µM (inactive) with SW-620; 76.4 µM (inactive) in the assay on SF-268; 31.9 µM (inactive) in the assay with UACC-257; 33.6 µM (inactive) in the assay with HOP-92. Also, the GI50 in the assay with KM12 was 33.7 µM (inactive); in the assay on NCI-H23, 45.6 µM (inactive); in the assay on SNB-19, 88.7 µM (inactive); in the assay with HCT-15, 48 µM; in the assay on NCI-H460, 50.9 µM (inactive); in the assay with SN12C, > 100 µM (inactive).

Turning to `COc1ccc(C(Cl)=C(c2ccc(OCCN(C)C)cc2)c2ccc(OCCN(C)C)cc2)cc1`, the GI50 in the assay with CAKI-1 was 4.6 µM (inactive); in the assay with OVCAR-5 it was 1.73 µM (inactive); in the assay on HCC 2998, 2.26 µM (inactive); in the assay with HL-60, 1.83 µM (inactive); in the assay on K562, 1.37 µM (inactive); in the assay on MOLT-4, 1.22 µM (inactive). For the same compound, the GI50 in the assay with RPMI-8226 is 1.62 µM (inactive); with UACC-62, 1.7 µM (inactive); with SW-620 it was 1.35 µM (inactive); in the assay on SF-268, 1.84 µM (inactive); with HOP-92, 2.16 µM (inactive); in the assay with KM12, 1.37 µM (inactive). The GI50 is 1.73 µM (inactive) in the assay on NCI-H23; 2.42 µM (inactive) in the assay on SNB-19; 1.59 µM in the assay with HCT-15; 1.82 µM (inactive) in the assay with NCI-H460; 1.13 µM (inactive) with HCT-116; 2.65 µM (inactive) in the assay on SN12C.

On to `O=C1C=CC2(CCCCCCC2=O)CC1` (stereo unspecified), for which the GI50 in the assay on CAKI-1, with OVCAR-5, in the assay with HCC 2998, in the assay with HL-60, in the assay with MOLT-4 and in the assay with RPMI-8226 was > 100 µM (inactive) each time. Moreover, the GI50 with UACC-62, in the assay with SW-620, in the assay on SF-268, in the assay with UACC-257, in the assay on HOP-92 and in the assay on KM12 was > 100 µM (inactive) in each case. Also, the GI50 in the assay with SNB-19 is > 100 µM (inactive); with HCT-15, greater than 100 µM; in the assay on NCI-H460, > 100 µM (inactive); with HCT-116 it was > 100 µM (inactive); with SN12C, > 100 µM (inactive).
